Values joined by “and” are separate entries in the source; they are usually repeats but may differ in a detail not shown here. Identical values can stand only once.
Assay: Biodistribution studies of 11C tracers
Type: in vivo, Wistar rats
Conditions: for SUV Blood / SUV Cerebellum / SUV Cerebrum total / SUV Cortex / SUV Hippocampus / SUV Striatum: normalized for body weight
Procedure: Biodistribution studies were carried out in healthy male Wistar rats (body weight 200-450 g) at 2 min, 30 min and 60 min post injection (p.i.) (n=3/time point). Rats were injected with about 11 MBq (2 min, 30 min analysis) or 22 MBq (60 min analysis) of the tracer via tail vein under anesthesia (2.5% isoflurane in O2 at 1 L/min flow rate) and sacrificed by decapitation at above specified time points. Blood and major organs were collected in tared tubes and weighed. The radioactivity in blood, organs and other body parts was measured using an automated gamma counter. The distribution of radioactivity in different parts of the body at different time points p.i. of the tracer was calculated and expressed as percentage of injected dose (% ID), and as percentage of injected dose per gram tissue (% ID/g) for the selected organs. % ID is calculated as cpm in organ/total cpm recovered. For calculation of total radioactivity in blood, blood mass was assumed to be 7% of the body mass.

[11CH3]Oc1cc(F)cc(F)c1C1CCN(c2ccn3c(CC4CC4)nnc3c2Cl)CC1 [[^11C]B-7, 8-chloro-3-(cyclopropylmethyl)-7-[4-[2,4-difluoro-6-[^11C]methoxyphenyl]-1-piperidinyl]-1,2,4-triazolo[4,3-a]pyridine]
% ID Blood (2 min p.i.): 5.4 % ID and 5.4 ± 0.3 % ID
% ID Carcass (2 min p.i.): 40 % ID and 39.8 ± 2.8 % ID
% ID Cerebellum (2 min p.i.): 0.18 % ID and 0.179 ± 0.043 % ID
% ID Cerebrum total (2 min p.i.): 0.53 % ID and 0.529 ± 0.098 % ID
% ID Cortex (2 min p.i.): 0.081 ± 0.011 % ID
% ID Heart (2 min p.i.): 4.1 ± 0.4 % ID
% ID Hippocampus (2 min p.i.): 0.020 ± 0.004 % ID
% ID Intestines (2 min p.i.): 8.2 ± 1.1 % ID
% ID Kidneys (2 min p.i.): 6.5 ± 0.7 % ID
% ID Liver (2 min p.i.): 33.4 ± 2.0 % ID
% ID Lungs (2 min p.i.): 1.8 ± 0.7 % ID
% ID Rest of cerebrum (2 min p.i.): 0.428 ± 0.084 % ID
% ID Spleen + Pancreas (2 min p.i.): 1.3 ± 0.2 % ID
% ID Stomach (2 min p.i.): 1.5 ± 0.2 % ID
% ID Striatum (2 min p.i.): 0.028 ± 0.008 % ID
% ID Urine (2 min p.i.): 0.1 ± 0.0 % ID
Total brain uptake (2 min p.i.): 0.75 % ID and 0.75 ± 0.1 % ID
SUV Blood (2 min p.i.): 0.80 ± 0.00
SUV Cerebellum (2 min p.i.): 1.53 ± 0.03
SUV Cerebrum total (2 min p.i.): 1.08 ± 0.02
SUV Cortex (2 min p.i.): 1.14 ± 0.03
SUV Hippocampus (2 min p.i.): 0.85 ± 0.02
SUV Striatum (2 min p.i.): 1.13 ± 0.03
% ID Blood (30 min p.i.): 3.5 ± 0.2 % ID
% ID Carcass (30 min p.i.): 64.9 ± 4.2 % ID
% ID Cerebellum (30 min p.i.): 0.198 ± 0.026 % ID
% ID Cerebrum total (30 min p.i.): 0.718 ± 0.142 % ID
% ID Cortex (30 min p.i.): 0.120 ± 0.018 % ID
% ID Heart (30 min p.i.): 1.4 ± 0.2 % ID
% ID Hippocampus (30 min p.i.): 0.030 ± 0.003 % ID
% ID Intestines (30 min p.i.): 10.2 ± 1.5 % ID
% ID Kidneys (30 min p.i.): 2.8 ± 0.3 % ID
% ID Liver (30 min p.i.): 14.6 ± 1.2 % ID
% ID Lungs (30 min p.i.): 0.6 ± 0.1 % ID
% ID Rest of cerebrum (30 min p.i.): 0.523 ± 0.117 % ID
% ID Spleen + Pancreas (30 min p.i.): 1.2 ± 0.3 % ID
% ID Stomach (30 min p.i.): 1.4 ± 0.2 % ID
% ID Striatum (30 min p.i.): 0.045 ± 0.014 % ID
% ID Urine (30 min p.i.): 0.4 ± 0.1 % ID
Total brain uptake (30 min p.i.): 0.93 ± 0.2 % ID
SUV Blood (30 min p.i.): 0.50 ± 0.00
SUV Cerebellum (30 min p.i.): 2.0 and 2.00 ± 0.03
SUV Cerebrum total (30 min p.i.): 1.51 ± 0.03
SUV Cortex (30 min p.i.): 1.72 ± 0.05
SUV Hippocampus (30 min p.i.): 1.20 ± 0.01
SUV Striatum (30 min p.i.): 1.70 ± 0.03
% ID Blood (60 min p.i.): 3.7 % ID and 3.7 ± 0.4 % ID
% ID Carcass (60 min p.i.): 61.5 ± 5.7 % ID
% ID Cerebellum (60 min p.i.): 0.163 ± 0.011 % ID
% ID Cerebrum total (60 min p.i.): 0.543 ± 0.014 % ID
% ID Cortex (60 min p.i.): 0.059 ± 0.007 % ID
% ID Heart (60 min p.i.): 0.9 ± 0.1 % ID
% ID Hippocampus (60 min p.i.): 0.022 ± 0.003 % ID
% ID Intestines (60 min p.i.): 13.4 ± 3.3 % ID
% ID Kidneys (60 min p.i.): 2.0 ± 0.3 % ID
% ID Liver (60 min p.i.): 15.3 ± 2.1 % ID
% ID Lungs (60 min p.i.): 0.7 ± 0.1 % ID
% ID Rest of cerebrum (60 min p.i.): 0.435 ± 0.004 % ID
% ID Spleen + Pancreas (60 min p.i.): 0.9 ± 0.0 % ID
% ID Stomach (60 min p.i.): 2.4 ± 0.7 % ID
% ID Striatum (60 min p.i.): 0.026 ± 0.007 % ID
% ID Urine (60 min p.i.): 0.5 ± 0.2 % ID
% ID present in liver and intestines (60 min p.i.): 28.7 % ID
% ID present in the urinary system (60 min p.i.): 2.5 % ID
Total brain uptake (60 min p.i.): 0.72 ± 0.0 % ID
SUV Blood (60 min p.i.): 0.50 ± 0.01
SUV Cerebellum (60 min p.i.): 1.50 ± 0.01
SUV Cerebrum total (60 min p.i.): 1.19 ± 0.01
SUV Cortex (60 min p.i.): 1.10 ± 0.01
SUV Hippocampus (60 min p.i.): 0.98 ± 0.01
SUV Striatum (60 min p.i.): 1.43 ± 0.01
